Legend:
EGFR L858R/T790M = EGFR L858R/T790M (Homo sapiens, UniProt P00533, L858R/T790M); experiment: Kinase inhibitory activity against EGFR bearing the L858R/T790M double mutation; type: biochemical; settings: EGFR L858R/T790M double mutation; 10 μM ATP; read-out: IC50 for kinase inhibition, EGFR L858R T790M
In short: (§1)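 Testing covers a ten-concentration range beginning at 3 μM, performed once per concentration at an ATP level of 10 μM.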

[1] = tested on: BaF3 cells expressing wildtype EGFR; experiment: Antiproliferative activity (MTT) against control BaF3 cells expressing wildtype EGFR; type: cell-based; settings: Mus musculus, BAF3 PARENTAL cells (control)
In short: (§2)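 In this screen, MTT reduction reported on proliferation of BaF3 cells dependent on mutated EGFR and of matched BaF3 cells expressing wildtype receptor.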

[2] = molecular target: T1, BaF3 cells expressing the target EGFR mutations (Homo sapiens, UniProt P00533, T790M, cells depend on it, form not given); experiment: Antiproliferative activity (MTT) against BaF3 cells expressing the target EGFR mutations; type: cell-based; settings: BAF3 EGFR DEL T790M PURO POOL cells, read-out: IC50, BAF3 EGFR DEL T790M PURO POOL
T1 construct: IC50, BAF3 EGFR DEL T790M PURO POOL; other: BAF3 EGFR DEL T790M PURO POOL cells, MTT; other: BAF3 EGFR DEL T790M PURO POOL cells; MTT
In short: as §2

[3] = molecular target: T2, BaF3 cells expressing the target EGFR mutations (Homo sapiens, UniProt P00533, T790M/L858R, cells depend on it); experiment: as above; type: cell-based; settings: BAF3 EGFR L858R-T790M PURO POOL cells, read-out: IC50, BAF3 EGFR L858R-T790M PURO POOL
T2 construct: IC50, BAF3 EGFR L858R-T790M PURO POOL; other: BAF3 EGFR L858R-T790M PURO POOL cells, MTT; IC50, BAF3 EGFR L858R-T790M PURO POOL; other: BAF3 EGFR L858R-T790M PURO POOL cells; MTT
In short: as §2

EGFR L858R = EGFR L858R (Homo sapiens, UniProt P00533, L858R); experiment: Kinase inhibitory activity against EGFR bearing the L858R mutation; type: biochemical; settings: EGFR L858R; 10 μM ATP; read-out: IC50 for kinase inhibition, EGFR L858R
In short: as §1

[4] = molecular target: human EGFR (native sequence) (Homo sapiens, UniProt P00533); experiment: Kinase inhibitory activity against human EGFR (native sequence); type: biochemical; settings: human EGFR native sequence; 10 μM ATP; read-out: IC50 for kinase inhibition, EGFR
In short: as §1

Sequence of EGFR L858R (P00533 25-1210 L858R): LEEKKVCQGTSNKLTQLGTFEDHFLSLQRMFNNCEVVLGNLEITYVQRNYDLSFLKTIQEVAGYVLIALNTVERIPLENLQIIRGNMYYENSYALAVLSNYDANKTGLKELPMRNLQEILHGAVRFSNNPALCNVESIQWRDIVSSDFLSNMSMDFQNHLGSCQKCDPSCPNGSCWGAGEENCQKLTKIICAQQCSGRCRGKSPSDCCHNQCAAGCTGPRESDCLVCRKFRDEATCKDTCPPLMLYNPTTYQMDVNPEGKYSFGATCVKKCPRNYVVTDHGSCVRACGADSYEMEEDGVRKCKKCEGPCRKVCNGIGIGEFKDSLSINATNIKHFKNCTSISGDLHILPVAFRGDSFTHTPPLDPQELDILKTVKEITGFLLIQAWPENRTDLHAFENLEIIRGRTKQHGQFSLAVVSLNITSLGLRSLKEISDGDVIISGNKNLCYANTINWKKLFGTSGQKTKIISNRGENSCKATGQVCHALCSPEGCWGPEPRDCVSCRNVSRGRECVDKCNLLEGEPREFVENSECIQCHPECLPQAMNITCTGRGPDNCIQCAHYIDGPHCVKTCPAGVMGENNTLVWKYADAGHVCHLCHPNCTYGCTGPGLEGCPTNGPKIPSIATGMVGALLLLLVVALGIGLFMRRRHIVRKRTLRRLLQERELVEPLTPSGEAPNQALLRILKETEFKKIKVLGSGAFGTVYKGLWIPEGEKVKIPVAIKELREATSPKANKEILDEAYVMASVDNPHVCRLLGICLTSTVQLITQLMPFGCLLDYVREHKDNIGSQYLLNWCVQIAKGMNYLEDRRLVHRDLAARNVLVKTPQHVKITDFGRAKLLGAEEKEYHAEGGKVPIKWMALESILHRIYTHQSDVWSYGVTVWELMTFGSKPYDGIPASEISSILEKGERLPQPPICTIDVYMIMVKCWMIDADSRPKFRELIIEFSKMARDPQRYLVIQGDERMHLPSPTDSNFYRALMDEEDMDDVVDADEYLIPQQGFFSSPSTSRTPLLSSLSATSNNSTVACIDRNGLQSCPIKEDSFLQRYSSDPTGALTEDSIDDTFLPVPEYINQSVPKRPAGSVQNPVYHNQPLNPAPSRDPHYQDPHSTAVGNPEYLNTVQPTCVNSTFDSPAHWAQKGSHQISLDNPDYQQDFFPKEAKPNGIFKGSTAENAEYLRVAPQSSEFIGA
Sequence of EGFR L858R/T790M (P00533 25-1210 T790M/L858R): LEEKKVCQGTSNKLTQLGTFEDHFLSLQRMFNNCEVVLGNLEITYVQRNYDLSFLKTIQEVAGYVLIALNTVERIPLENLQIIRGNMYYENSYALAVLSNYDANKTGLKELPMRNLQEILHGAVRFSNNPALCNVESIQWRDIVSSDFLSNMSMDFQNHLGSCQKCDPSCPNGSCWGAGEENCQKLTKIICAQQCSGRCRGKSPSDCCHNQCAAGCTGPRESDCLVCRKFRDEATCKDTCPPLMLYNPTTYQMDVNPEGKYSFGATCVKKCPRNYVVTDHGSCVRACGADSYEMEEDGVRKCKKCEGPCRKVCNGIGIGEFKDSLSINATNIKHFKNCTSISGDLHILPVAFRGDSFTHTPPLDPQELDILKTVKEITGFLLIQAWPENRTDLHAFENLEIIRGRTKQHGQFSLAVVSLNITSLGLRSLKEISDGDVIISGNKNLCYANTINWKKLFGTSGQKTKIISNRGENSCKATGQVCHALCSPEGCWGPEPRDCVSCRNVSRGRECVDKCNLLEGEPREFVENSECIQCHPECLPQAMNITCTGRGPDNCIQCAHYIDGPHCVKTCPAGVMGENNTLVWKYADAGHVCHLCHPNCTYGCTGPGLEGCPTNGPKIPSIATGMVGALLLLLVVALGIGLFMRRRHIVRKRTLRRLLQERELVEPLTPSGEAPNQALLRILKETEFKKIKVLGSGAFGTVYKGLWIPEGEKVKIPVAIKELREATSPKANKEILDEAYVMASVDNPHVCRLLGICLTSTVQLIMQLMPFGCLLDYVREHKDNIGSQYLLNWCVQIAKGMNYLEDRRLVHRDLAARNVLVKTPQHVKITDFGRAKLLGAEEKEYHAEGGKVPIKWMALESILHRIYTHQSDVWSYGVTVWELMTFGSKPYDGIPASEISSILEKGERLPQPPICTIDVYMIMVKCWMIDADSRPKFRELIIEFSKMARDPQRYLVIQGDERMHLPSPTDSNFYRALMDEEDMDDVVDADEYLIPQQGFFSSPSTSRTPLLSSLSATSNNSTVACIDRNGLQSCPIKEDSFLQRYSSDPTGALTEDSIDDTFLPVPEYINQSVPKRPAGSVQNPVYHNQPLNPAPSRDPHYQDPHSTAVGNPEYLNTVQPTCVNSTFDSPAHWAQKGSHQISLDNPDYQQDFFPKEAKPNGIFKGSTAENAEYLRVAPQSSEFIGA
T2 sequence (P00533 whole entry T790M/L858R): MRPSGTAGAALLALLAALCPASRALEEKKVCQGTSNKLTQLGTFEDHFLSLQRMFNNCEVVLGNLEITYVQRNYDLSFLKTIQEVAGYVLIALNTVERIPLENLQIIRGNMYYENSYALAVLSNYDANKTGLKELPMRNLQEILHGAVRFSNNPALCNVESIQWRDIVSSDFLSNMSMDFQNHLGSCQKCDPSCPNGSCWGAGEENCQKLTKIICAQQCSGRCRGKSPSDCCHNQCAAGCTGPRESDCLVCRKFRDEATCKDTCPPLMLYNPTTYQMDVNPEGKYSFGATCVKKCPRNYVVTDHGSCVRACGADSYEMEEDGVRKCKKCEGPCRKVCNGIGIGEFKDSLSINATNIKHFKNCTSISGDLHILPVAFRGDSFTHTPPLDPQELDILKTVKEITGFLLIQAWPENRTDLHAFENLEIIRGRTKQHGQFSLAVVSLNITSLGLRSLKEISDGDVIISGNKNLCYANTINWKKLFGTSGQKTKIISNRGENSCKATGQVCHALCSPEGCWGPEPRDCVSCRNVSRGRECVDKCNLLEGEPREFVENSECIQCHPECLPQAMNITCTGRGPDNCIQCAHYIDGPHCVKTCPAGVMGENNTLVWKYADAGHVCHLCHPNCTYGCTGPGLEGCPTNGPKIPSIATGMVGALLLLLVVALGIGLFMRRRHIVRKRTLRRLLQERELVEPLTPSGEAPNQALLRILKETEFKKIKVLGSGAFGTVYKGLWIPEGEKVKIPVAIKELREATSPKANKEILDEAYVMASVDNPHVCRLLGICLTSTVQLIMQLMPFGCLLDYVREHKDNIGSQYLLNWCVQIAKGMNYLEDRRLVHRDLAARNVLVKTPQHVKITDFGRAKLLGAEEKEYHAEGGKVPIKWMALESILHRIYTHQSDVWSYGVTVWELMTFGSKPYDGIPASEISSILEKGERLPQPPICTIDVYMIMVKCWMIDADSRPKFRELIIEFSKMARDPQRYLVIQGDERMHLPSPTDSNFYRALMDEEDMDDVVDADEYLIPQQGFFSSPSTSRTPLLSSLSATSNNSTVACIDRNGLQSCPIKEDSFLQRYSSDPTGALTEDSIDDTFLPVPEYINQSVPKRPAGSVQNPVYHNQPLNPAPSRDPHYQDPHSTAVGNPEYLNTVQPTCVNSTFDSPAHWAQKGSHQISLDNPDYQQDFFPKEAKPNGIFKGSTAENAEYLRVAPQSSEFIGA
T1 sequence (P00533 with tags, fused parts or gaps DEL746-750/T790M, form open): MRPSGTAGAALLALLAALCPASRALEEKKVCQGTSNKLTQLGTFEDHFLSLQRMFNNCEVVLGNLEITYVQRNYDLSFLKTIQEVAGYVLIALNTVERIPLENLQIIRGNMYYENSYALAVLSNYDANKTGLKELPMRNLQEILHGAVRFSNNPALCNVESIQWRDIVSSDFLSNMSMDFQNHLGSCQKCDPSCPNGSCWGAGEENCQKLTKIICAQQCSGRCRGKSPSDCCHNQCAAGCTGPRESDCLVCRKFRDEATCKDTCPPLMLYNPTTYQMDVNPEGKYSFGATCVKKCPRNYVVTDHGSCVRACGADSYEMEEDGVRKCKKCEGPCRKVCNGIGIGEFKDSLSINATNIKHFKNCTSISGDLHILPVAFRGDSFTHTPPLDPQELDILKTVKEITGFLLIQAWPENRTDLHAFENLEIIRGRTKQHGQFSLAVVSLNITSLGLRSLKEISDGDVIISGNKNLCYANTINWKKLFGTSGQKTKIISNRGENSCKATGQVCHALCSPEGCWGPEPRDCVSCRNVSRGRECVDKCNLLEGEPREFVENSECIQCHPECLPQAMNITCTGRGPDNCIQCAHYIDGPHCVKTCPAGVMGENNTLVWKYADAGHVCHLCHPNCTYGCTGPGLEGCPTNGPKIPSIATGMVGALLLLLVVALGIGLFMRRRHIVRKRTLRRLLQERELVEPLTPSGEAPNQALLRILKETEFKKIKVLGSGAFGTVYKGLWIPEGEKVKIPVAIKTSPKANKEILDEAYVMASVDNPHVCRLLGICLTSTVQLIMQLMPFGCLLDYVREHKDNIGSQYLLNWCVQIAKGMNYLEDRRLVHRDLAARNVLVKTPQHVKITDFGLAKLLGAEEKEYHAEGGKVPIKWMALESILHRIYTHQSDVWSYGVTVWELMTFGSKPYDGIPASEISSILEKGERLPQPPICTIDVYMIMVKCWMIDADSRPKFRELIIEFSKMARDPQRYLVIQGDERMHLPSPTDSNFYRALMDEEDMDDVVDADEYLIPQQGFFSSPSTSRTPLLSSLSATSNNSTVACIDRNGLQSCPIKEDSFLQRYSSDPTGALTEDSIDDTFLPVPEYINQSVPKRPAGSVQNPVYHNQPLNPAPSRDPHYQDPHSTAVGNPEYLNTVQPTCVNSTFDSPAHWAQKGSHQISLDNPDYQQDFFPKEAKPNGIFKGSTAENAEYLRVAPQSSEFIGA

SMILES | IC50 (EGFR L858R/T790M) | IC50 [1] | GI50 [2] | GI50 [3] | IC50 (EGFR L858R) | IC50 [4]
C=CC(=O)Nc1cc(Nc2ncc(Cl)c(Nc3ccccc3P(C)(C)=O)n2)c(OC)cc1N1CCC(N2CCC(O)CC2)C1 (stereo not drawn) [Example 39, N-(5-((5-chloro-4-((2-(dimethylphosphoryl)phenyl)amino)pyrimidin-2-yl)amino)-2-(3-(4-hydroxypiperidin-1-yl)pyrrolidin-1-yl)-4-methoxyphenyl)acrylamide] | < 50 nM | ≥ 250 nM | 101 to 250 nM | ≥ 250 nM | < 50 nM | < 50 nM
C=CC(=O)Nc1cc(Nc2ncc(Cl)c(Nc3ccccc3P(C)(C)=O)n2)c(OC)cc1N1CCC(N2CCN(CCO)CC2)C1 (stereo not drawn) [Example 40, N-(5-((5-chloro-4-((2-(dimethylphosphoryl)phenyl)amino)pyrimidin-2-yl)amino)-2-(3-(4-(2-hydroxyethyl)piperazin-1-yl)pyrrolidin-1-yl)-4-methoxyphenyl)acrylamide] | < 50 nM | ≥ 250 nM | ≥ 250 nM | ≥ 250 nM | < 50 nM | < 50 nM
C=CC(=O)Nc1cc(Nc2ncc(Cl)c(Nc3ccccc3P(C)(C)=O)n2)c(OC)cc1N1CCC(N(C)CCOC)C1 (stereo not drawn) [Example 41, N-(5-((5-chloro-4-((2-(dimethylphosphoryl)phenyl)amino)pyrimidin-2-yl)amino)-4-methoxy-2-(3-((2-methoxyethyl)(methyl)amino)pyrrolidin-1-yl)phenyl)acrylamide] | < 50 nM | ≥ 250 nM | < 50 nM | < 50 nM | < 50 nM | < 50 nM
C=C(CN1CCCC1)C(=O)Nc1ccc(OC)c(Nc2ncc(Cl)c(Nc3ccccc3P(C)(C)=O)n2)c1 [Example 42, N-(3-((5-chloro-4-((2-(dimethylphosphoryl)phenyl)amino)pyrimidin-2-yl)amino)-4-methoxyphenyl)-2-(pyrrolidin-1-ylmethyl)acrylamide] | < 50 nM | ≥ 250 nM | < 50 nM | < 50 nM | < 50 nM | < 50 nM
C=C(CN1CCCCC1)C(=O)Nc1ccc(OC)c(Nc2ncc(Cl)c(Nc3ccccc3P(C)(C)=O)n2)c1 [Example 43, N-(3-((5-chloro-4-((2-(dimethylphosphoryl)phenyl)amino)pyrimidin-2-yl)amino)-4-methoxyphenyl)-2-(piperidin-1-ylmethyl)acrylamide] | < 50 nM | ≥ 250 nM | < 50 nM | < 50 nM | < 50 nM | < 50 nM
C=C(CN1CCN(S(C)(=O)=O)CC1)C(=O)Nc1ccc(OC)c(Nc2ncc(Cl)c(Nc3ccccc3P(C)(C)=O)n2)c1 [Example 44, N-(3-((5-chloro-4-((2-(dimethylphosphoryl)phenyl)amino)pyrimidin-2-yl)amino)-4-methoxyphenyl)-2-((4-(methylsulfonyl)piperazin-1-yl)methyl)acrylamide] | < 50 nM | ≥ 250 nM | < 50 nM | < 50 nM | < 50 nM | < 50 nM
C=C(CN1CCC(N2CCN(C)CC2)CC1)C(=O)Nc1ccc(OC)c(Nc2ncc(Cl)c(Nc3ccccc3P(C)(C)=O)n2)c1 [Example 45, N-(3-((5-chloro-4-((2-(dimethylphosphoryl)phenyl)amino)pyrimidin-2-yl)amino)-4-methoxyphenyl)-2-((4-(4-methylpiperazin-1-yl)piperidin-1-yl)methyl)acrylamide] | < 50 nM | ≥ 250 nM | < 50 nM | < 50 nM | < 50 nM | < 50 nM
C=C(CN1CCS(=O)(=O)CC1)C(=O)Nc1ccc(OC)c(Nc2ncc(Cl)c(Nc3ccccc3P(C)(C)=O)n2)c1 [Example 46, N-(3-((5-chloro-4-((2-(dimethylphosphoryl)phenyl)amino)pyrimidin-2-yl)amino)-4-methoxyphenyl)-2-((1,1-dioxidothiomorpholino)methyl)acrylamide] | < 50 nM | ≥ 250 nM | ≥ 250 nM | ≥ 250 nM | 50 to 100 nM | ≥ 250 nM
C=C(CN1CCNC(=O)C1)C(=O)Nc1ccc(OC)c(Nc2ncc(Cl)c(Nc3ccccc3P(C)(C)=O)n2)c1 [Example 47, N-(3-((5-chloro-4-((2-(dimethylphosphoryl)phenyl)amino)pyrimidin-2-yl)amino)-4-methoxyphenyl)-2-((3-oxopiperazin-1-yl)methyl)acrylamide] | < 50 nM | ≥ 250 nM | 101 to 250 nM | ≥ 250 nM | < 50 nM | < 50 nM
C=C(CN1CCOCC1)C(=O)Nc1ccc(OC)c(Nc2ncc(Cl)c(Nc3ccccc3P(C)(C)=O)n2)c1 [Example 48, N-(3-((5-chloro-4-((2-(dimethylphosphoryl)phenyl)amino)pyrimidin-2-yl)amino)-4-methoxyphenyl)-2-(morpholinomethyl)acrylamide] | < 50 nM | ≥ 250 nM | < 50 nM | < 50 nM | < 50 nM | < 50 nM
C=C(CN1CCN(C)CC1)C(=O)Nc1ccc(OC)c(Nc2ncc(Cl)c(Nc3ccccc3P(C)(C)=O)n2)c1 [Example 49, N-(3-((5-chloro-4-((2-(dimethylphosphoryl)phenyl)amino)pyrimidin-2-yl)amino)-4-methoxyphenyl)-2-((4-methylpiperazin-1-yl)methyl)acrylamide] | < 50 nM | ≥ 250 nM | < 50 nM | < 50 nM | < 50 nM | < 50 nM
C=C(CN1CCN(C(C)C)CC1)C(=O)Nc1ccc(OC)c(Nc2ncc(Cl)c(Nc3ccccc3P(C)(C)=O)n2)c1 [Example 50, N-(3-((5-chloro-4-((2-(dimethylphosphoryl)phenyl)amino)pyrimidin-2-yl)amino)-4-methoxyphenyl)-2-((4-isopropylpiperazin-1-yl)methyl)acrylamide] | < 50 nM | ≥ 250 nM | < 50 nM | < 50 nM | < 50 nM | 50 to 100 nM
C=C(CN1CCC(N2CCOCC2)CC1)C(=O)Nc1ccc(OC)c(Nc2ncc(Cl)c(Nc3ccccc3P(C)(C)=O)n2)c1 [Example 51, N-(3-((5-chloro-4-((2-(dimethylphosphoryl)phenyl)amino)pyrimidin-2-yl)amino)-4-methoxyphenyl)-2-((4-morpholinopiperidin-1-yl)methyl)acrylamide] | < 50 nM | ≥ 250 nM | < 50 nM | < 50 nM | < 50 nM | < 50 nM
C=C(CN1CCN(CCO)CC1)C(=O)Nc1ccc(OC)c(Nc2ncc(Cl)c(Nc3ccccc3P(C)(C)=O)n2)c1 [Example 52, N-(3-((5-chloro-4-((2-(dimethylphosphoryl)phenyl)amino)pyrimidin-2-yl)amino)-4-methoxyphenyl)-2-((4-(2-hydroxyethyl)piperazin-1-yl)methyl)acrylamide] | < 50 nM | ≥ 250 nM | < 50 nM | < 50 nM | < 50 nM | < 50 nM
C=C(CN1CCC(O)C1)C(=O)Nc1ccc(OC)c(Nc2ncc(Cl)c(Nc3ccccc3P(C)(C)=O)n2)c1 (stereo not drawn) [Example 53, N-(3-((5-chloro-4-((2-(dimethylphosphoryl)phenyl)amino)pyrimidin-2-yl)amino)-4-methoxyphenyl)-2-((3-hydroxypyrrolidin-1-yl)methyl)acrylamide] | < 50 nM | ≥ 250 nM | < 50 nM | < 50 nM | < 50 nM | < 50 nM
C=CC(=O)Nc1cc(Nc2ncc(Cl)c(Nc3ccccc3P(C)(C)=O)n2)c(OC)cc1CN1CCN(C)CC1 [Example 55, N-(5-((5-chloro-4-((2-(dimethylphosphoryl)phenyl)amino)pyrimidin-2-yl)amino)-4-methoxy-2-((4-methylpiperazin-1-yl)methyl)phenyl)acrylamide] | < 50 nM | ≥ 250 nM | < 50 nM | 50 to 100 nM | < 50 nM | < 50 nM
C=CC(=O)Nc1cc(Nc2ncc(Cl)c(Nc3ccccc3P(C)(C)=O)n2)c(OC)cc1C(=O)N1CCN(C)CC1 [Example 56, N-(5-((5-chloro-4-((2-(dimethylphosphoryl)phenyl)amino)pyrimidin-2-yl)amino)-4-methoxy-2-(4-methylpiperazine-1-carbonyl)phenyl)acrylamide] | < 50 nM | ≥ 250 nM | ≥ 250 nM | ≥ 250 nM | < 50 nM | 101 to 250 nM
